Experimental data taken from patent publication US20100168112A1, “2-Substituted and 4-substituted aryl nitrone compounds” (RENOVIS, INC., priority 2004, published 2010).
Structures can show the parent of a compound that is named as a salt.

How the values were obtained:
[1] = DPPH free radical-scavenging/antioxidant assay; type: biochemical; settings: 50 μM DPPH in 80% methanol; 24 h time point; read-out: EC50 (concentration at which a compound reduces by 50% the peak absorbance of DPPH at 520 nm)
Experimental: Nitrone compounds of the present invention were tested for their free-radical scavenging/antioxidant activity in an in vitro assay that is accepted by those skilled in the art as a model for conditions involving the generation of free radicals. The assay is based on a reaction between a free-radical donor, 2,2-diphenyl-1-picrylhydrazyl (DPPH), and a radical scavenger/antioxidant to be tested for free-radical scavenging activity. Upon donation of the free-radical electron to the purported radical scavenger, the peak visible absorbance of DPPH (515-520 nm) decreases so that optical density readings at this part of the visual spectrum reflect the progression of the following reaction:
where AH is a hypothetical radical scavenger/antioxidant. The assay is based on a protocol originally detailed in Brand-Williams, W. et al., 1995, Use of a Free Radical Method to Evaluate Antioxidant Activity, Lebensm. Wiss. Technol., 28:25-30, with further modifications described in L. R. Fukumoto and G. Mazza, 2000, Assessing Antioxidant and Prooxidant Activities of Phenolic Compounds, J. Agric. Food Chem., 48:3597-3604.
The antioxidant assay was performed using Perkin-Elmer 96-well, clear-bottom, black-wall plates (ordered from E & K Scientific Products) and a Tecan Safire absorbance plate reader. The positive controls were Trolox (6-hydroxy-2,5,7,8-tetramethylchromane-2-carboxylic acid, Sigma-Aldrich), BHA (2(3)-tert-butylhydroquinone monomethyl ether, Sigma-Aldrich), PBN (C-(phenyl)-N-(tert-butyl)nitrone, Sigma-Aldrich) and S-PBN (C-(2-sulfophenyl)-N-(tert-butyl)nitrone, sodium salt, prepared according to E. G. Janzen and R. V. Shetty, 1979, Tetrahedron Lett., 35: 3229-32), and the negative control (i.e., vehicle) was DMSO. In brief, 2 μL of 100× DMSO stock of the desired final concentration of each control or nitrone compound to be tested in the same batch was added to a separate well. To each well was then added 198 μL of a freshly made 50 μM DPPH (Sigma-Aldrich) solution in 80% methanol using a multi-channel pipette. The absorbance was immediately read on the plate reader at 520 nm and thereafter read periodically to assess kinetics until all reactions reached completion (i.e., steady state). Since the steady-state point was 24 h, the assay results are shown from the 24 h time point. The absorbance at 520 nm (OD) was plotted versus the concentrations of the controls and nitrone compounds to assess dose-response and interpolate the EC50 values of the controls and test compounds.

[2] = Pharmacokinetic evaluation following intravenous and oral administration in rats; type: in vivo; settings: male, Sprague-Dawley; for Cmax / Tmax / bioavailability: 5 mg/kg; for Cmax: rat plasma; for Cmax / Tmax: oral gavage, 2 mg/mL at 2.5 mL/kg; for clearance / Vd / Tmax / bioavailability / half-life: plasma, rat; for clearance / Vd / half-life: 1 mg/kg; for clearance / Vd: intravenous administration, 1 mg/mL at 1.0 mL/kg; for clearance: read-out: CI (clearance) (converted); for Vd: read-out: Vd (volume of distribution); for bioavailability: po 2 mg/mL at 2.5 mL/kg vs iv 1 mg/mL at 1.0 mL/kg, dose-normalized, read-out: F (%) oral bioavailability; for half-life: intravenous, read-out: T1/2 elimination half life (converted)
Experimental: Male Sprague-Dawley rats were given at least 24 hours acclimation before experiment initiation. During acclimation period, all animals received food and water ad libitum. However, food (not water) was removed from the animal's cages up to 12 hours before initiation of the experiment. During the first 4 hours of experimentation, the animals received only water ad libitum. Two to three animals for iv and three animals for oral administration were tested. For iv formulation nitrone compounds of this invention were dissolved (1 mg/mL) in a mixture of 5% dimethyl acetamide (v/v), 0 to 4% Tween 80 (v/v), 10 to 40% PEG 400 (v/v) and the rest percentage of water (v/v). For oral formulation nitrone compounds of this invention were dissolved (2 mg/mL) in a mixture of 4% of 10% Tween in water and 96% of 0.5% carboxymethyl cellulose (medium viscosity) in water; or 4% of 10% Tween in water, 48% of 0.5% carboxymethyl cellulose (medium viscosity) in water, and 48% of 0.5% Hydroxypropyl Methylcellulose/0.2% Sodium Lauryl Sulfate in water. These formulations were stored at 5° C. until the experiment. Formulations were then stir-mixed at least half an hour before dosing. Exactly 200 μL of each left-over formulation was diluted with CH3CN/H2O for concentration analysis. The animals were weighed before dosing. The body weight was used to calculate the true dose for each animal:
IV dosing: • Dose volume (mL)=1.0 mL/kg The intravenous dose was administered through the jugular vein catheter or tail vein in less than 1 minute.
PO dosing: • Dose volume (mL)=2.5 mL/kg The oral dose was administered by oral gavage.
For IV dosing, blood samples were collected (using a pre-heparinized syringe) via the carotid artery or jugular vein catheter at t=2, 5, 15, 30, 60, 120, 180, 360, and 480 minutes post dosing. For PO dosing, blood samples were collected (using a pre-heparinized syringe) via the carotid artery or jugular vein catheter before dosing and at t=5, 15, 30, 60, 120, 180, 360, and 480 minutes post dosing. For some nitrone compounds a 1440 minutes (24 hours) sample was also taken for both IV and PO administrations. About 250 μL of blood was obtained at each time point from the animals. Equal volumes of 0.9% normal saline were replaced to prevent dehydration. The whole blood samples were maintained on ice until centrifugation. Blood samples were then centrifuged at 14,000 rpm for 10 minutes at 4° C. and the upper plasma layer transferred into a clean vial and stored at −80° C. The resulting plasma samples were then analyzed by mass spectroscopy using standard methods.
All the samples from above assays were analyzed on a PE-Sciex API 3000 triple quadrupole with a Turbo Ion Spray source. Nitrone compounds of this invention were separated from the matrix via a linear gradient reverse-phase chromatography using a C18 column, such as Thermo BDS Hypersil C18 (100×4.6 mm, 5 micron particle, 120A pore size). The mobile Phases were:
Nitrone compounds were detected by the mass spectrometer in the positive ion multiple reaction monitoring mode (MRM). For quantitative analysis, a standard curve was prepared by spiking a stock solution of the nitrone compound to the appropriate matrix to achieve a quantitation curve range and analyzed the standards in the same manner as the samples.
Pharmacokinetic parameters of the aryl nitrone compounds were determined by a noncompartmental analysis using WinNonlin-Pro (Version 4.1, Pharsight Corporation). Average and standard deviation of the parameters were calculated using standard formulas in Microsoft Excel.

COC(=O)c1ccccc1/C=[N+](\[O-])C1CCCCC1 [Compound 2, N-Cyclohexyl-C-[2-(methoxycarbonyl)phenyl]nitrone]
EC50 [1]: > 1000 µM

CC(C)(C)/[N+]([O-])=C/c1ccccc1C(=O)O [Compound 7, N-(tert-Butyl)-C-(2-carboxyphenyl)nitrone]
EC50 [1]: 100 to 500 µM

COC(=O)c1[nH]c2ccccc2c1/C=[N+](\[O-])C1CCCCC1 [Compound 78, N-Cyclohexyl-C-[2-(methoxycarbonyl)-1H-indol-3-yl]nitrone]
EC50 [1]: > 1000 µM

COC(=O)c1c(/C=[N+](\[O-])C2CCCCC2)cc(OC)cc1OC [Compound 5, N-Cyclohexyl-C-[2-(methoxycarbonyl)-3,5-dimethoxyphenyl]-nitrone]
EC50 [1]: 100 to 500 µM

COC(=O)c1[nH]c2ccccc2c1/C=[N+](\[O-])Cc1ccccc1 [Compound 79, N-Benzyl-C[2-(methoxycarbonyl)-1H-indol-3-yl]nitrone]
EC50 [1]: > 1000 µM

CC(C)(C)[N+]([O-])=Cc1ccccc1 [PBN, C-(phenyl)-N-(tert-butyl)nitrone, reference compound]
EC50 [1]: > 1000 µM

COC(=O)c1c(/C=[N+](\[O-])C(C)(C)C)cc(OC)cc1OC [Compound 4, N-(tert-Butyl)-C-[2-(methoxycarbonyl)-3,5-dimethoxyphenyl]-nitrone]
EC50 [1]: 100 to 500 µM

COC(=O)c1[nH]c2ccccc2c1/C=[N+](\[O-])C(C)(C)C [Compound 77, N-(tert-Butyl)-C-[2-(methoxycarbonyl)-1H-indol-3-yl]nitrone]
EC50 [1]: > 1000 µM

CCNS(=O)(=O)c1ccc(/C=[N+](\[O-])C(C)(C)C)cc1 [Compound 24, N-(tert-Butyl)-C-[4-(ethylsulfamoyl)phenyl]nitrone]
EC50 [1]: > 1000 µM | Cmax [2]: 198 ng/mL | clearance [2]: 59 mL/min/kg | Vd [2]: 2.58 L/kg | Tmax [2]: 12 min | bioavailability [2]: 7.19% | half-life [2]: 31.2 min

COC(=O)c1ccccc1/C=[N+](\[O-])Cc1ccccc1 [Compound 3, N-Benzyl-C-[2-(methoxycarbonyl)phenyl]nitrone]
EC50 [1]: 500 to 1000 µM

COC(=O)c1ccccc1/C=[N+](\[O-])C(C)(C)C [Compound 1, N-(tert-Butyl)-C[2-(methoxycarbonyl)phenyl]nitrone]
EC50 [1]: 500 to 1000 µM

COC(=O)c1c(/C=[N+](\[O-])Cc2ccccc2)cc(OC)cc1OC [Compound 6, N-Benzyl-C-[2-(methoxycarbonyl)-3,5-dimethoxyphenyl]-nitrone]
EC50 [1]: 100 to 500 µM

O=C(O)c1ccccc1/C=[N+](\[O-])C1CCCCC1 [Compound 8, N-Cyclohexyl-C-(2-carboxyphenyl)nitrone]
EC50 [1]: 10 to 100 µM

Cc1c(C)c2c(c(C)c1O)CCC(C)(C(=O)O)O2 (stereo not shown) [Trolox, 6-hydroxy-2,5,7,8-tetramethylchromane-2-carboxylic acid, reference compound]
EC50 [1]: < 10 µM

CN1CCN(S(=O)(=O)c2ccc(/C=[N+](\[O-])C(C)(C)C)cc2)CC1 [Compound 22, N-(tert-Butyl)-C-[4-(4-methyl-piperazine-1-sulfonyl)phenyl]nitrone]
EC50 [1]: > 1000 µM | Cmax [2]: 703 ng/mL | clearance [2]: 36.8 mL/min/kg | Vd [2]: 1.83 L/kg | Tmax [2]: 14.4 min | bioavailability [2]: 15.6% | half-life [2]: 34.2 min

CC(C)(C)/[N+]([O-])=C/c1ccc(S(=O)(=O)Nc2ccc(F)cc2)cc1 [Compound 25, N-(tert-Butyl)-C-[4-(4-fluoro-phenylsulfamoyl)phenyl]nitrone]
EC50 [1]: > 1000 µM | Cmax [2]: 10 ng/mL | clearance [2]: 29.3 mL/min/kg | Vd [2]: 1.12 L/kg | Tmax [2]: 15 min | bioavailability [2]: 0.85% | half-life [2]: 25.8 min

CC(C)(C)/[N+]([O-])=C/c1ccc(S(=O)(=O)N2CCCCC2)cc1 [Compound 28, N-(tert-Butyl)-C-[4-(piperidine-1-sulfonyl)phenyl]nitrone]
EC50 [1]: > 1000 µM | Cmax [2]: 134 ng/mL | clearance [2]: 19 mL/min/kg | Vd [2]: 19.9 L/kg | Tmax [2]: 64.8 min | bioavailability [2]: 13.8% | half-life [2]: 782 min

COc1cc(/C=[N+](\[O-])Cc2ccccc2)c(C(=O)O)c(OC)c1 [Compound 12, N-Benzyl-C-(2-carboxy-3,5-dimethoxyphenyl)nitrone]
EC50 [1]: 10 to 100 µM

2(3)-tert-butylhydroquinone monomethyl ether [BHA, reference compound]
EC50 [1]: < 10 µM

CC(C)(C)[N+]([O-])=Cc1ccccc1S(=O)(=O)O [SPBN, C-(2-sulfophenyl)-N-(tert-butyl)nitrone, sodium salt, reference compound]
EC50 [1]: > 1000 µM

CC(C)(C)/[N+]([O-])=C/c1ccc(S(=O)(=O)N2CCCC2)cc1 [Compound 29, N-(tert-Butyl)-C-[4-(pyrrolidine-1-sulfonyl)phenyl]nitrone]
EC50 [1]: > 1000 µM | Cmax [2]: 114 ng/mL | clearance [2]: 38 mL/min/kg | Vd [2]: 0.97 L/kg | Tmax [2]: 11.4 min | bioavailability [2]: 4.3% | half-life [2]: 17.4 min

COc1cc(/C=[N+](\[O-])C(C)(C)C)c(C(=O)O)c(OC)c1 [Compound 10, N-(tert-Butyl)-C-(2-carboxy-3,5-dimethoxyphenyl)nitrone]
EC50 [1]: 500 to 1000 µM

O=C(O)c1ccccc1/C=[N+](\[O-])Cc1ccccc1 [Compound 9, N-Benzyl-C-(2-carboxyphenyl)nitrone]
EC50 [1]: 10 to 100 µM

COc1cc(/C=[N+](\[O-])C2CCCCC2)c(C(=O)O)c(OC)c1 [Compound 11, N-Cyclohexyl-C-(2-carboxy-3,5-dimethoxyphenyl)nitrone]
EC50 [1]: 10 to 100 µM

CN(C)C(=O)c1ccccc1/C=[N+](\[O-])C(C)(C)C [Compound 16, N-(tert-Butyl)-C-[2-(N,N-dimethylcarbamoyl)phenyl]nitrone]
EC50 [1]: 100 to 500 µM
